Source: US5773438A, “Synthetic matrix metalloprotease inhibitors and use thereof” (Glycomed Incorporated, priority 1994, dated 1998)
“Also recorded” adds a separate entry of the source.

What was measured:
[1] = system: common carotid artery; experiment: anti-restenotic assay, balloon catheter injury of common carotid artery; assay type: in vivo, Male Sprague-Dawley rats
Experimental: Male Sprague-Dawley rats (3-3.5 months old) were subject to balloon catheter injury of the common carotid artery (Clowes et al. Lab. Invest. (1983) 49:208-215). […] Rats were sacrificed at 4 days after injury. They were injected with 25 mg/kg BrdU subcutaneously at 17, 9 and 1 hours before sacrifice to label replicating vascular smooth muscle cells. A catheter was inserted into the aorta, and the carotids were fixed by perfusion with 4% paraformaldehyde at physiologic pressure. After carefully dissecting out the common carotid, the vessels were embedded in paraffin, cross-sectioned and stained with anti-BrdU antibody and hematoxylin, and an index of medical smooth muscle cell replication was obtained by expressing the % labelled SMCs ([…] et al., J. Clin. Invest. (1992) 90:2044-2049). After fixation, the common carotids were pinned out with the intimal surface facing upwards, and cells present on the intimal surface were stained with an antibody to histone proteins. […] The surface cells were counted and the number of cells per unit area was determined. […] The animals were injected with BrdU before sacrifice to label replicating cells in the media and intima. By 10 days after injury, the normal vessel forms a thickened neointima; smooth muscle migration in to the intima and subsequent proliferation contribute to this thickening. Cross-sections of the vessel were cut and stained with anti-BrdU and hematoxylin. Intimal cross-sectional areas were measured using a computer digitizing system. […] All data are presented as mean+SEM, and the data were analyzed by student's test.

[2] = system: PdiBu-Induced Epidermal Hyperplasia; experiment: PdiBu-induced epidermal hyperplasia mouse model (psoriasis); assay type: in vivo, hairless mice
Experimental: The phorbol ester, PdiBu (20 nmol in 20 μl if acetone) was applied to both ears of hairless mice (h/h) (approximately 1 cm^2 each). The test compounds (in total volume of 20 μl) were then applied to the right ear immediately (15 to 30 min) following PdiBu. The left ear of each animal received an equivalent amount (20 μl) of vehicle. Test compounds (and vehicle) were reapplied at 6 and 18 hours following PdiBu. Treatment times were staggered to allow exact time intervals to be obtained. At 30 hours after PdiBu, animals were anesthetized, and ear thickness values were obtained using a microcaliper. The weights of punch biopsies (6mm) were then obtained. Histology was performed on selected samples taken at 30 hours.
Left ear in each animal served as vehicle-treated controls (PdiBu+ETOH). Thus, the controls for this series include: 1) Untreated controls; 2) PdiBu plus vehicle alone (included for each mouse tested); 3) PdiBu plus AHA; 4) PdiBu plus Lidex® as a positive control.

[3] = system: hypovolemic shock; experiment: hypovolemic shock, trauma-hemorrhage and resuscitation, non-heparinized rat; assay type: in vivo, Sprague-Dawley rats
Experimental: This experiment relates to metalloprotease inhibitors in treating hypovolemic shock when administered systemically (via i.v. injection, infusion or other appropriate route) during resuscitation following hemorrhage-induced shock in a non-heparinized animal.
Following hemorrhage, Ringer's lactate (3X maximum bleedout volume) was given over 45 minutes followed by Ringer's lactate (2X maximum bleedout volume) over 60 minutes. […] Sham-operated animals underwent blood vessel cannulation and midline incision, but hemorrhage and resuscitation was not induced. […] Saline-treated underwent trauma-hemorrhage and fluid resuscitation plus vehicle (an equal volume of normal saline) treatment.

With CNC(=O)[C@H](Cc1c[nH]c2ccccc12)NC(=O)[C@@H](CC(=O)NO)CC(C)C [Compound 5A, N-[D,L-2-isobutyl-3-(N'-hydroxycarbonylamido)-propanoyl]-tryptophan methylamide] the “number of cells per unit area (intimal surface) versus CMC controls” value ([1]; 4 day, 100 mg/kg i.p. daily) was “significant decrease”, the “cell migration into the intima” value ([1]; 4 days after balloon injury) was “very large decrease” and the “intimal cell replication rate versus controls” value ([1]; 10 day) was “significantly higher”. For the same compound, the lesion thickness ([1]; 10 day) was “dramatically reduced”, the “intimal cross-sectional area versus CMC controls” value ([1]; 10 day, daily administration) was “significant decrease” and the skin biopsy weight ([2]; PdiBu + 5A, 0.51 μmol/ear at 0.25 and 24 hours, 6 mm punch) was 13.4 ± 1.5 mg. For the same compound, the “skin biopsy weight, % of Control” value ([2]; PdiBu + 5A, 0.51 μmol/ear at 0.25 and 24 hours, of untreated control) was 146%, the ear thickness ([2]; PdiBu + 5A, topical 0.51 μmol/ear) was 18.6 ± 1.6 inch × 10^-3 and the “ear thickness, % of Control” value ([2]; PdiBu + 5A, topical 0.51 μmol/ear, of untreated control) was 140%. For the same compound, the PdiBu-induced epidermal hyperplasia ([2]; histology) was “inhibited; also recorded: completely prevents; also recorded: decreased inflammation and epidermal hyperplasia”, the “PdiBu-induced extravasation of RBC's” value ([2]; histology) was “inhibited” and the “PdiBu-induced migration of inflammatory cells into dermis and epidermis” value ([2]; histology) was “inhibited”. The epidermal morphology ([2]; histology) was “more normal appearing epidermal morphology”, the anti-inflammatory activity ([2]; in vivo model for psoriasis) was “potent anti-inflammatory activity; also recorded: nearly comparable to that observed with Lidex®” and the “effect on PdiBu-induced ear thickness” value ([2]; topical) was “significantly inhibited”. For the same compound, the “effect on PdiBu-induced increase in punch biopsy weight” value ([2]; topical) was “significantly inhibited”, the “hepatocellular function (Vmax and Km)” value ([3]; 2 and 4 hours) was “improved hepatic function relative to saline group; also recorded: restores or significantly improves” and the “Vmax of indocyanine green clearance versus saline group” value ([3]; 2 h) was “significantly higher”. The “maximal clearance rate (Vmax) of indocyanine green” value ([3]; 2 h after resuscitation, of sham level) was “about 85%”, the “microvascular blood flow versus saline group” value ([3]; 2 h and 4 h, liver, kidney, spleen, small intestine) was “elevated relative to the saline group; also recorded: restores or significantly improves” and the microvascular blood flow ([3]; 2 h and 4 h, of sham, liver, kidney, spleen, small intestine) was 80-100%. For the same compound, the “Vmax of indocyanine green clearance versus saline treated animals” value ([3]; 4 h) was “two-fold that of saline treated animals”, the total peripheral resistance ([3]; following resuscitation, versus saline or sham) was “lower following resuscitation in 5A group versus saline or sham treatment; also recorded: decreases total peripheral resistance” and the cardiac output ([3]; of sham group) was “about 80%”. The stroke volume ([3]; of sham group) was “about 85%”, the mean arterial pressure ([3]; of the sham group) was 60-70% and the “cardiac output versus saline group” value ([3]; rat, in vivo) was “significantly elevated; also recorded: restores or significantly improves”. For the same compound, the “mean arterial pressure versus saline” value ([3]; rat, in vivo) was “not significantly different; also recorded: no significant effects”, the “stroke volume versus saline group” value ([3]; rat, in vivo) was “elevated relative to saline group” and the “systemic hematocrit versus saline treated group” value ([3]; rat, in vivo) was “no significant effects”. For the same compound, the heart rate ([3]; versus other groups) was “about the same; also recorded: no significant effects”.
